Experimental data from patent US11090319B2, “Therapeutic uses of pharmaceutical compositions comprising cyclic boronic acid ester derivatives” (Melinta Subsidiary Corp., priority 2010, dated 2021).
Read-outs that look alike come from different tables or passages of the source.

What was measured:
[1] = test system: strains expressing class A ESBLs; type: cell-based; conditions: tigemonam at 4 μg/mL; for MPC4 TEM-10 EC1009: strain EC1009 TEM-10; for MPC4 CTX-M-14 KP1005: strain KP1005 CTX-M-14; for MPC4 CTX-M-15 KP1009: strain KP1009 CTX-M-15; for MPC4 SHV-12 KP1010: strain KP1010 SHV-12; for MPC4 SHV-18 KP1012: strain KP1012 SHV-18; for MPC4 TEM-10 ec302: strain ec302 TEM-10; for MPC4 TEM-26 ec304: strain ec304 TEM-26; for MPC4 SHV-5 ec308: strain ec308 SHV-5
Method: Selected β-lactamase inhibitors were also tested for their ability to potentiate the monobactam tigemonam.

[2] = test system: strains expressing KPC alone or in combination with additional beta-lactamases; assay: microbe, parasite or virus in culture; type: cell-based

Compound | MPC4 TEM-10 EC1009 [1] | MPC4 CTX-M-14 KP1005 [1] | MPC4 CTX-M-15 KP1009 [1] | MPC4 SHV-12 KP1010 [1] | MPC4 SHV-18 KP1012 [1] | MPC4 TEM-10 ec302 [1] | MPC4 TEM-26 ec304 [1] | MPC4 SHV-5 ec308 [1] | further results
N[C@@H](C(=O)N[C@H]1CC[C@@H](CC(=O)O)OB1O)c1ccccc1 [Compound 9] | Z (MPC@4 of greater than 10 μg/mL) | Z (MPC@4 of greater than 10 μg/mL) | Z (MPC@4 of greater than 10 μg/mL) | Z (MPC@4 of greater than 10 μg/mL) | Z (MPC@4 of greater than 10 μg/mL) | Z (MPC@4 of greater than 10 μg/mL) | Z (MPC@4 of greater than 10 μg/mL) | Z (MPC@4 of greater than 10 μg/mL) | 
O=C(O)C[C@@H]1CC[C@H](NC(=O)NCc2ccccc2)B(O)O1 [Compound 18] | X (MPC@4 of less than 2 μg/mL) | X (MPC@4 of less than 2 μg/mL) | X (MPC@4 of less than 2 μg/mL) | X (MPC@4 of less than 2 μg/mL) | X (MPC@4 of less than 2 μg/mL) | Y (MPC@4 of 2 μg/mL to 10 μg/mL) | Y (MPC@4 of 2 μg/mL to 10 μg/mL) | Y (MPC@4 of 2 μg/mL to 10 μg/mL) | 
O=C(O)CC1C=CC[C@H](NC(=O)Cc2cccs2)B(O)O1 (stereo partly drawn) [Compound 64, 2-((3R)-2-hydroxy-3-(2-(thiophen-2-yl)acetamido)-2,3,4,7-tetrahydro-1,2-oxaborepin-7-yl)acetic acid] | Y (MPC@4 of 2 μg/mL to 10 μg/mL) | Z (MPC@4 of greater than 10 μg/mL) | Y (MPC@4 of 2 μg/mL to 10 μg/mL) | X (MPC@4 of less than 2 μg/mL) | Y (MPC@4 of 2 μg/mL to 10 μg/mL) | Z (MPC@4 of greater than 10 μg/mL) | Z (MPC@4 of greater than 10 μg/mL) | Y (MPC@4 of 2 μg/mL to 10 μg/mL) | 
O=C(O)C[C@@H]1C=CC[C@H](NC(=O)Cc2cccs2)B(O)O1 [Compound 67, 2-((3R,7R)-2-hydroxy-3-(2-(thiophen-2-yl)acetamido)-2,3,4,7-tetrahydro-1,2-oxaborepin-7-yl)acetic acid] | Z (MPC@4 of greater than 10 μg/mL) | Z (MPC@4 of greater than 10 μg/mL) | Y (MPC@4 of 2 μg/mL to 10 μg/mL) | Y (MPC@4 of 2 μg/mL to 10 μg/mL) | Y (MPC@4 of 2 μg/mL to 10 μg/mL) | Z (MPC@4 of greater than 10 μg/mL) | Z (MPC@4 of greater than 10 μg/mL) | Z (MPC@4 of greater than 10 μg/mL) | 
O=C(O)C[C@H]1C=CC[C@H](NC(=O)Cc2cccs2)B(O)O1 [Compound 68, 2-((3R,7S)-2-hydroxy-3-(2-(thiophen-2-yl)acetamido)-2,3,4,7-tetrahydro-1,2-oxaborepin-7-yl)acetic acid] | Y (MPC@4 of 2 μg/mL to 10 μg/mL) | Y (MPC@4 of 2 μg/mL to 10 μg/mL) | Y (MPC@4 of 2 μg/mL to 10 μg/mL) | X (MPC@4 of less than 2 μg/mL) | X (MPC@4 of less than 2 μg/mL) | Y (MPC@4 of 2 μg/mL to 10 μg/mL) | Y (MPC@4 of 2 μg/mL to 10 μg/mL) | Y (MPC@4 of 2 μg/mL to 10 μg/mL) | 
C[C@@H](O)[C@H]1C(=O)N2C(C(=O)O)=C(S[C@@H]3CN[C@H](CNS(N)(=O)=O)C3)[C@H](C)[C@H]12 [Doripenem] |  |  |  |  |  |  |  |  | MIC ([2]; Enterobacter cloacae, Enterobacter cloacae ECL1058, KPC-3, SHV-11, TEM-1, Compound 5 0 mg/L, read-out: MIC of Doripenem): > 4 µg/mL; MIC ([2]; Enterobacter cloacae, Enterobacter cloacae ECL1059, KPC-3, SHV-12, TEM-1, Compound 5 0 mg/L, read-out: MIC of Doripenem): 0.5 to 4 µg/mL; MIC ([2]; Escherichia coli, Escherichia coli EC1007, KPC-3, Compound 5 0 mg/L, read-out: MIC of Doripenem): 0.5 to 4 µg/mL; MIC ([2]; Klebsiella oxytoca, Klebsiella oxytoca KX1017, KPC-2, OXA-2, SHV-30, Compound 5 0 mg/L, read-out: MIC of Doripenem): 0.5 to 4 µg/mL; MIC ([2]; Klebsiella oxytoca, Klebsiella oxytoca KX1018, KPC-2, SHV-40, OXY-1, Compound 5 0 mg/L, read-out: MIC of Doripenem): 0.5 to 4 µg/mL; MIC ([2]; Klebsiella oxytoca, Klebsiella oxytoca KX1019, KPC-2 OXA-2, Compound 5 0 mg/L, read-out: MIC of Doripenem): 0.5 to 4 µg/mL; MIC ([2]; Klebsiella pneumoniae, Klebsiella pneumoniae KP 1004, KPC-2, Compound 5 0 mg/L, read-out: MIC of Doripenem): 0.5 to 4 µg/mL; MIC ([2]; Klebsiella pneumoniae, Klebsiella pneumoniae KP 1008, KPC-2, Compound 5 0 mg/L, read-out: MIC of Doripenem): 0.5 to 4 µg/mL; MIC ([2]; Klebsiella pneumoniae, Klebsiella pneumoniae KP1082, KPC-2 SHV-1, Compound 5 0 mg/L, read-out: MIC of Doripenem): 0.5 to 4 µg/mL; MIC ([2]; Klebsiella pneumoniae, Klebsiella pneumoniae KP1083, KPC-3, SHV-1, TEM-1, Compound 5 0 mg/L, read-out: MIC of Doripenem): > 4 µg/mL; MIC ([2]; Klebsiella pneumoniae, Klebsiella pneumoniae KP1084, KPC-3, SHV-11, TEM-1, Compound 5 0 mg/L, read-out: MIC of Doripenem): > 4 µg/mL; MIC ([2]; Klebsiella pneumoniae, Klebsiella pneumoniae KP 1087, KPC-2, CTX-M-15, SHV-11, TEM-1, Compound 5 0 mg/L, read-out: MIC of Doripenem): > 4 µg/mL; MIC ([2]; Klebsiella pneumoniae, Klebsiella pneumoniae KP1088, KPC-3, SHV-11, TEM-1, Compound 5 0 mg/L, read-out: MIC of Doripenem): 0.5 to 4 µg/mL
C[C@@H](O)[C@H]1C(=O)N2C(C(=O)O)=C(S[C@@H]3CN[C@H](C(=O)Nc4cccc(C(=O)O)c4)C3)[C@H](C)[C@H]12 [Ertapenem] |  |  |  |  |  |  |  |  | MIC ([2]; Enterobacter cloacae, Enterobacter cloacae ECL1058, KPC-3, SHV-11, TEM-1, Compound 5 0 mg/L, read-out: MIC of Ertapenem): > 4 µg/mL; MIC ([2]; Enterobacter cloacae, Enterobacter cloacae ECL1059, KPC-3, SHV-12, TEM-1, Compound 5 0 mg/L, read-out: MIC of Ertapenem): 0.5 to 4 µg/mL; MIC ([2]; Escherichia coli, Escherichia coli EC1007, KPC-3, Compound 5 0 mg/L, read-out: MIC of Ertapenem): > 4 µg/mL; MIC ([2]; Klebsiella oxytoca, Klebsiella oxytoca KX1017, KPC-2, OXA-2, SHV-30, Compound 5 0 mg/L, read-out: MIC of Ertapenem): > 4 µg/mL; MIC ([2]; Klebsiella oxytoca, Klebsiella oxytoca KX1018, KPC-2, SHV-40, OXY-1, Compound 5 0 mg/L, read-out: MIC of Ertapenem): > 4 µg/mL; MIC ([2]; Klebsiella oxytoca, Klebsiella oxytoca KX1019, KPC-2 OXA-2, Compound 5 0 mg/L, read-out: MIC of Ertapenem): > 4 µg/mL; MIC ([2]; Klebsiella pneumoniae, Klebsiella pneumoniae KP 1004, KPC-2, Compound 5 0 mg/L, read-out: MIC of Ertapenem): > 4 µg/mL; MIC ([2]; Klebsiella pneumoniae, Klebsiella pneumoniae KP 1008, KPC-2, Compound 5 0 mg/L, read-out: MIC of Ertapenem): > 4 µg/mL; MIC ([2]; Klebsiella pneumoniae, Klebsiella pneumoniae KP1082, KPC-2 SHV-1, Compound 5 0 mg/L, read-out: MIC of Ertapenem): 0.5 to 4 µg/mL; MIC ([2]; Klebsiella pneumoniae, Klebsiella pneumoniae KP1083, KPC-3, SHV-1, TEM-1, Compound 5 0 mg/L, read-out: MIC of Ertapenem): > 4 µg/mL; MIC ([2]; Klebsiella pneumoniae, Klebsiella pneumoniae KP1084, KPC-3, SHV-11, TEM-1, Compound 5 0 mg/L, read-out: MIC of Ertapenem): > 4 µg/mL; MIC ([2]; Klebsiella pneumoniae, Klebsiella pneumoniae KP 1087, KPC-2, CTX-M-15, SHV-11, TEM-1, Compound 5 0 mg/L, read-out: MIC of Ertapenem): > 4 µg/mL; MIC ([2]; Klebsiella pneumoniae, Klebsiella pneumoniae KP1088, KPC-3, SHV-11, TEM-1, Compound 5 0 mg/L, read-out: MIC of Ertapenem): > 4 µg/mL
C[C@@H](O)[C@H]1C(=O)N2C(C(=O)O)=C(SCCN=CN)C[C@H]12 [Imipenem] |  |  |  |  |  |  |  |  | MIC ([2]; Escherichia coli, read-out: MIC of Imipenem): > 4 µg/mL
C[C@@H](O)[C@H]1C(=O)N2C(C(=O)O)=C(S[C@@H]3CN[C@H](C(=O)N(C)C)C3)[C@H](C)[C@H]12 [Meropenem] |  |  |  |  |  |  |  |  | MIC ([2]; Enterobacter cloacae, read-out: MIC of Meropenem, Enterobacter cloacae ECL1058, KPC-3, SHV-11, TEM-1, Compound 5 0 mg/L): > 4 µg/mL; MIC ([2]; Enterobacter cloacae, read-out: MIC of Meropenem, Enterobacter cloacae ECL1059, KPC-3, SHV-12, TEM-1, Compound 5 0 mg/L): 0.5 to 4 µg/mL; MIC ([2]; Escherichia coli, read-out: MIC of Meropenem, Escherichia coli EC1007, KPC-3, Compound 5 0 mg/L): 0.5 to 4 µg/mL; MIC ([2]; Klebsiella oxytoca, read-out: MIC of Meropenem, Klebsiella oxytoca KX1017, KPC-2, OXA-2, SHV-30, Compound 5 0 mg/L): 0.5 to 4 µg/mL; MIC ([2]; Klebsiella oxytoca, read-out: MIC of Meropenem, Klebsiella oxytoca KX1018, KPC-2, SHV-40, OXY-1, Compound 5 0 mg/L): 0.5 to 4 µg/mL; MIC ([2]; Klebsiella oxytoca, read-out: MIC of Meropenem, Klebsiella oxytoca KX1019, KPC-2 OXA-2, Compound 5 0 mg/L): 0.5 to 4 µg/mL; MIC ([2]; Klebsiella pneumoniae, read-out: MIC of Meropenem, Klebsiella pneumoniae KP 1004, KP C-2, Compound 5 0 mg/L): > 4 µg/mL; MIC ([2]; Klebsiella pneumoniae, read-out: MIC of Meropenem, Klebsiella pneumoniae KP 1008, KPC-2, Compound 5 0 mg/L): 0.5 to 4 µg/mL; MIC ([2]; Klebsiella pneumoniae, read-out: MIC of Meropenem, Klebsiella pneumoniae KP1082, KPC-2 SHV-1, Compound 5 0 mg/L): 0.5 to 4 µg/mL; MIC ([2]; Klebsiella pneumoniae, read-out: MIC of Meropenem, Klebsiella pneumoniae KP1083, KPC-3, SHV-1, TEM-1, Compound 5 0 mg/L): > 4 µg/mL; MIC ([2]; Klebsiella pneumoniae, read-out: MIC of Meropenem, Klebsiella pneumoniae KP1084, KPC-3, SHV-11, TEM-1, Compound 5 0 mg/L): > 4 µg/mL; MIC ([2]; Klebsiella pneumoniae, read-out: MIC of Meropenem, Klebsiella pneumoniae KP 1087, KPC-2, CTX-M-15, SHV-11, TEM-1, Compound 5 0 mg/L): > 4 µg/mL; MIC ([2]; Klebsiella pneumoniae, read-out: MIC of Meropenem, Klebsiella pneumoniae KP1088, KPC-3, SHV-11, TEM-1, Compound 5 0 mg/L): > 4 µg/mL
